Measured values published in US5846755A (priority 1995, dated 1998).
Square brackets hold non-standard residues; d marks the D form. Peptide text beside a SMILES is read from it. * marks the point of attachment. Pip = O=C(O)[C@@H]1CCCCN1; Cbz = O=C(OCc1ccccc1)*

molecular target: enzyme purified from the venom of Crotalus Adamanteus (hemorrhagin) (Crotalus adamanteus, UniProt P34179); assay: not given; format: biochemical; conditions: read-out: IC50
Sequence (P34179 whole entry, looked up): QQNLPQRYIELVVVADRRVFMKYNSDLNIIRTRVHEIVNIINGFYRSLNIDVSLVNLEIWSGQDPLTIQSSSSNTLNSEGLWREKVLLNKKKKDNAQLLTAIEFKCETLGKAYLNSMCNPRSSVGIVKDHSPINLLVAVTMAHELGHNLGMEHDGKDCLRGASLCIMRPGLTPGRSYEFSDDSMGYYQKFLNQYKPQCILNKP

| Molecule | IC50 [nM] |
| --- | --- |
| CC(C)C[C@H](NC(=O)c1ccncc1)C(=O)N1Cc2[nH]c3ccccc3c2C[C@H]1C(=O)O [Compound 29, 4-NIC--(L)--Leu--(S)--Cyt--OH] | 400 |
| CC(C)C[C@H](NC(=O)c1nccnc1N)C(=O)N1Cc2[nH]c3ccccc3c2C[C@H]1C(=O)O [Compound 4, 3-APZC--(L)--Leu--(S)--Cyt--OH] | 57 |
| CC(C)C[C@H](NC(=O)c1ccc2ccccc2n1)C(=O)N1Cc2[nH]c3ccccc3c2C[C@H]1C(=O)O [Compound 16, 2-QIC--(L)--Leu--(S)--Cyt--OH] | 28 |
| CC(C)C[C@H](NC(=O)[C@@H](N)CCO)C(=O)N1Cc2[nH]c3ccccc3c2C[C@H]1C(=O)O [Compound 12, (L)--HomoSer--(L)--Leu--(S)--Cyt--OH] | 5000 |
| CC(C)C[C@H](NC(=O)c1cccc2ccccc12)C(=O)N1Cc2[nH]c3ccccc3c2C[C@H]1C(=O)O [Compound 37, 1-NAF--(L)--Leu--(S)--Cyt--OH] | 210 |
| O=C(N[C@@H](Cc1c[nH]c2ccccc12)C(=O)N1Cc2[nH]c3ccccc3c2C[C@H]1C(=O)O)c1ccco1 [Compound 34, 2-FUR--(L)--Trp--(S)--Cyt--OH] | 400 |
| COc1cc(C(=O)N[C@@H](CC(C)C)C(=O)N2Cc3[nH]c4ccccc4c3C[C@H]2C(=O)O)nc2ccccc12 [Compound 6, 4-MQC--(L)--Leu--(S)--Cyt--OH] | 50 |
| CC(C)C[C@H](NC(=O)CSc1ncccn1)C(=O)N1Cc2[nH]c3ccccc3c2C[C@H]1C(=O)O [Compound 2, 2-PMTA--(L)--Leu--(S)--Cyt--OH] | 230 |
| Cc1cnc(C(=O)N[C@@H](CC(C)C)C(=O)N2Cc3[nH]c4ccccc4c3C[C@H]2C(=O)O)cn1 [Compound 21, 5-MPZ--(L)--Leu--(S)--Cyt--OH] | 44 |
| COc1cccc2cc(C(=O)N[C@@H](CC(C)C)C(=O)N3Cc4[nH]c5ccccc5c4C[C@H]3C(=O)O)oc12 [Compound 5, 7-MBF--(L)--Leu--(S)--Cyt--OH] | 94 |
| CC(C)C[C@H](NC(=O)c1ccc([N+](=O)[O-])cc1)C(=O)N1Cc2[nH]c3ccccc3c2C[C@H]1C(=O)O [Compound 26, 4-NBZ--(L)--Leu--(S)--Cyt--OH] | 95 |
| CC(C)C[C@H](NC(=O)c1ccoc1)C(=O)N1Cc2[nH]c3ccccc3c2C[C@H]1C(=O)O [Compound 13, 3-Furoyl--(L)--Leu--(S)--Cyt--OH] | 400 |

molecular target: T1, recombinant human gelatinase A (Homo sapiens, UniProt P08253); assay: In vitro effects on recombinant human gelatinase A; format: biochemical; conditions: Concentration 8.0 × 10^-6 M
T1 construct: purchased Strangeways Laboratories, Cambridge, UK
T1 sequence (P08253 110-660): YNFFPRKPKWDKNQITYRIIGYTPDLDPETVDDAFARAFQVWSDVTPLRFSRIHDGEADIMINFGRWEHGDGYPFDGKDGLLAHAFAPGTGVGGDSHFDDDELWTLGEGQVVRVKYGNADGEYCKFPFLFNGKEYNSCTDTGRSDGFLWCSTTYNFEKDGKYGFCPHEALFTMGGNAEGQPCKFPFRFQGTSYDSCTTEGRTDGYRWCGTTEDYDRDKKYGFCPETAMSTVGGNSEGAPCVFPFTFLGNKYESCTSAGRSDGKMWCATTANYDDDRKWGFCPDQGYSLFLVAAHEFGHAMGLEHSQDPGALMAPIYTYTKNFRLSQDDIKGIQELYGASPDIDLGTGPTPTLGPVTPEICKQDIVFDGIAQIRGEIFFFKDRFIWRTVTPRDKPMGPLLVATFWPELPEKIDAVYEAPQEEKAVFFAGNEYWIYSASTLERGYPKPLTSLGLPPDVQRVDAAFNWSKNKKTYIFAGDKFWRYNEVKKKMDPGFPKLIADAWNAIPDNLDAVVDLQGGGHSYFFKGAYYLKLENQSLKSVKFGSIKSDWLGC
Source text: Assays on human gelatinase A, an enzyme released in high concentration by any kind of tumor cells during the process of metastatization, and recognized also as a product of stimulated cells in many pathological processes, have been performed using the protein obtained by recombinant biotechnology (Strangeways Laboratories, Cambridge, UK). The enzymatic activity has been followed over time, measuring the amount of fluorescent substrate cleaved by the enzyme, in the presence or absence of synthetic compounds (Perkin Elmer L50 B fluorimeter).

| Molecule | % Inhibition [%] |
| --- | --- |
| CC(C)C[C@H](NC(=O)c1cccs1)C(=O)N[C@@H](Cc1c[nH]c2ccccc12)C(=O)O [Tiof--Leu--Trp] | 60 |

same assay, conditions: Concentration 8.0 × 10^-7 M

| Molecule | % Inhibition [%] |
| --- | --- |
| CC(C)C[C@H](NC(=O)c1ccc2ccccc2n1)C(=O)N1Cc2[nH]c3ccccc3c2C[C@H]1C(=O)O [Compound 16, 2-QIC--(L)--Leu--(S)--Cyt--OH] | 23 |

same assay, conditions: Concentration 9.0 × 10^-6 M

| Molecule | % Inhibition [%] |
| --- | --- |
| CC(C)C[C@H](NC(=O)[C@@H]1CCCCN1C(=O)OCc1ccccc1)C(=O)N[C@@H](Cc1c[nH]c2ccccc12)C(=O)O [Z--Pip--Leu--Trp] (Cbz-[Pip]-Leu-Trp-OH) | 63 |
| MePro--Ala--Cyt | 39 |
| CC(C)C[C@H](NC(=O)c1ccc[nH]1)C(=O)N[C@@H](Cc1c[nH]c2ccccc12)C(=O)O [Pirr--Leu--Trp] | 33 |

same assay, conditions: Concentration 9.4 × 10^-7 M

| Molecule | % Inhibition [%] |
| --- | --- |
| CC(C)C[C@H](NC(=O)c1ccoc1)C(=O)N1Cc2[nH]c3ccccc3c2C[C@H]1C(=O)O [Compound 13, 3-Furoyl--(L)--Leu--(S)--Cyt--OH] | 41 |

molecular target: T2, recombinant human gelatinase B (Homo sapiens, UniProt P14780); assay: In vitro effects on recombinant human gelatinase B; format: biochemical; conditions: Concentration 1.0 × 10^-5 M
T2 construct: purchased Stangeways Laboratories, Cambridge, UK (so in the source)
Protocol: Assays on human gelatinase B, another enzyme released by tumor cells, were performed using also, in this case, the protein obtained by recombinant biotechnology Stangeways Laboratories, Cambridge, UK). As usual, the enzymatic activity was followed over time, measuring the amount of fluorescent substrate cleaved by the enzyme, in the presence or absence of synthetic compounds (Perkin Elmer L50 B fluorimeter).

T2 sequence (P14780 94-707): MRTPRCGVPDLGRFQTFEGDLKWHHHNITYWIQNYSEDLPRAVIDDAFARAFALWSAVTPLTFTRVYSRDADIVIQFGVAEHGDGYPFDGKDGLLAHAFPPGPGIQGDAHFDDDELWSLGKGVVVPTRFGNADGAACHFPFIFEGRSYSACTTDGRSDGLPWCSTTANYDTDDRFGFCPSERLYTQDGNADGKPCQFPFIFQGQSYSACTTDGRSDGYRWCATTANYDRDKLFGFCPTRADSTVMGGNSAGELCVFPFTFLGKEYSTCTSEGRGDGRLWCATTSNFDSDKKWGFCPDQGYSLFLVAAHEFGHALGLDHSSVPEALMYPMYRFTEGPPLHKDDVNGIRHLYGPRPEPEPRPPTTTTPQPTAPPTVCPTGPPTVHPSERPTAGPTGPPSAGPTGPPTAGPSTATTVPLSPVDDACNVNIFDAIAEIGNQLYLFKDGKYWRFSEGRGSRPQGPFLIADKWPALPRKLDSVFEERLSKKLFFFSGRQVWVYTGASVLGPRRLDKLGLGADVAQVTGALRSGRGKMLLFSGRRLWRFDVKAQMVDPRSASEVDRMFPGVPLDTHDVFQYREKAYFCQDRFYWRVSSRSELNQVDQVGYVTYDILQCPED

| Molecule | % Inhibition [%] |
| --- | --- |
| CC(C)C[C@H](NC(=O)c1ccc2ccccc2n1)C(=O)N1Cc2[nH]c3ccccc3c2C[C@H]1C(=O)O [Compound 16, 2-QIC--(L)--Leu--(S)--Cyt--OH] | 51 |

same assay, conditions: Concentration 1.1 × 10^-5 M

| Molecule | % Inhibition [%] |
| --- | --- |
| MePro--Leu--Cyt | 37 |

same assay, conditions: Concentration 5.5 × 10^-6 M

| Molecule | % Inhibition [%] |
| --- | --- |
| Cc1cnc(C(=O)N[C@@H](CC(C)C)C(=O)N2Cc3[nH]c4ccccc4c3C[C@H]2C(=O)O)cn1 [Compound 21, 5-MPZ--(L)--Leu--(S)--Cyt--OH] | 43 |

molecular target: neutrophil collagenase (recombinant human) (Homo sapiens, UniProt P22894); assay: In vitro assays on recombinant human collagenase; format: biochemical; conditions: Concentration 1.1 × 10^-5 M
Protocol: Using the same enzymatic determination already described (fluorimetric detection of cleavage of a substrate peptide containing a fluorescent moiety), some of the compounds were tested on neutrophil collagenase, an enzyme described as participating in any kind of inflammatory reaction in mammalian bodies. In this case, the purified enxzyme was also obtained by recombinant means.

Sequence of neutrophil collagenase (recombinant human) (P22894 101-467): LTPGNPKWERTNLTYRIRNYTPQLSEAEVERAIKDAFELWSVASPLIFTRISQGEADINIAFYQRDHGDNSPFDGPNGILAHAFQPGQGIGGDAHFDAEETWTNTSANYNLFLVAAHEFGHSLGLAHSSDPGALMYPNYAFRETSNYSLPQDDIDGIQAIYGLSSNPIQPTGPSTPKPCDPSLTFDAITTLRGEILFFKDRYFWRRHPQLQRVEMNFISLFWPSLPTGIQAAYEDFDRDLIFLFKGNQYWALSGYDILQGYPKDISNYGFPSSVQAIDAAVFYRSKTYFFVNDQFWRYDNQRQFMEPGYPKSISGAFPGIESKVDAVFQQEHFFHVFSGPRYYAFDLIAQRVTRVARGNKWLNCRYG

| Molecule | % Inhibition [%] |
| --- | --- |
| CC(C)C[C@H](NC(=O)c1ccc[nH]1)C(=O)N[C@@H](Cc1c[nH]c2ccccc12)C(=O)O [Pirr--Leu--Trp] | 15 |

test system: human melanoma cell line VMM-5; assay: Matrigel-based invasion assay with human melanoma cells; format: cell-based; conditions: Concentration 500 micro M, VMM-5 cells, 20 hours
Source text: In order to obtain information about the possible interference of the synthesized compounds on the ability of tumor cells to migrate through the body (metastatization), the human melanoma cell line VMM-5 was used in the matrigel-based invasion assay, in which basal membrane matrigel (Becton Dickinson) and tissue culture inserts with 8 microns pore size in 24 well tissue culture plates were used as Boyden chambers. The chambers were coated with diluted matrigel and allowed to dry overnight; they were then reconstituted with serum free medium, and melanoma cells (4,000,000/ml) were dispensed in each insert. In the lower chambers, a chemoattractant was included. The chambers were finally placed in a humidified CO2 incubator at 37° C., and incubated for 20 hours. The inserts were dried and the cells on the upper surface removed. The polycarbonate filters were fixed with methanol, stained with hematoxylin and eosin, and counted with a microscope. Inhibition of migration due to compounds has been expressed as a percentage of the total number of migrated cells in the control chambers containing only the buffer in which the compounds were dissolved.

| Molecule | % Inhibition of Invasion [%] |
| --- | --- |
| MePro--Leu--Cyt | 40 |

test system: not listed separately; assay: Resistance to proteolytic activity in stomach juices (rat stomach homogenate, HPLC); conditions: 37° C., 60 minutes
Protocol: To check if the compounds of the present invention are resistant to proteolytic activity in stomach juices and, therefore, could be administered orally, the stomachs of fasting rats were homogenized in physiological solutions (1:1). 300 microliters of solutions of the compounds (1 mg/ml of saline) were incubated with 0.5 ml of stomach homogenates (37° C.).

| Molecule | Residue after 60 Minutes [%] |
| --- | --- |
| CC(C)C[C@H](NC(=O)c1ccc([N+](=O)[O-])cc1)C(=O)N1Cc2[nH]c3ccccc3c2C[C@H]1C(=O)O [Compound 26, 4-NBZ--(L)--Leu--(S)--Cyt--OH] | 100 |

same assay, conditions: 37° C., 120 minutes

| Molecule | Residue after 120 Minutes [%] |
| --- | --- |
| CC(C)C[C@H](NC(=O)c1ccc([N+](=O)[O-])cc1)C(=O)N1Cc2[nH]c3ccccc3c2C[C@H]1C(=O)O [Compound 26, 4-NBZ--(L)--Leu--(S)--Cyt--OH] | > 95 |
